In patent US8173360B2, “Cell death inhibitor” (Takeda Pharmaceutical Company Limited, priority 2002, dated 2012):

Legend:
[1] = tested on: primary cardiomyocytes derived from rat neonates; assay: Inhibition of serum depletion-induced myocardial cell death (WST-8 viable cell count); format: cell-based; settings: serum depletion, 4 days, WST-8 viable cell count
Description: Neonates (within one day after birth) were obtained from pregnant Wistar rats purchased from Charles River Japan, Inc. and anesthetized with ether. After sterilization with 70% ethanol, the heart was removed with forceps. After washing with phosphate buffered saline (manufactured by Takara Co., Ltd., T900), the heart removed was minced with surgical scissors. The pieces of tissue were washed 4 or 5 times with phosphate buffered saline to remove most of non-cardiomyocytes derived from blood. To the pieces of tissue corresponding to 10 neonates, 5 ml of an enzyme solution [which is a solution of trypsin (1.25 mg) (manufactured by Difco) and collagenase (0.25 mg) (manufactured by Sigma) in phosphate buffer (1 ml)] was added. The mixture was stirred for 15 minutes with a stirrer while maintaining at 37° C. After 2.5 ml of the enzyme solution was replenished, the mixture was stirred for further 15 minutes, and this procedure was repeated twice. Subsequently, Medium 199 (manufactured by Gibco) containing 10% fetal cow serum (manufactured Biowicker, Inc.) was added to the mixture in a half volume of the enzyme solution to terminate the enzymatic reaction. After filtering through a cell strainer (manufactured by Falcon), the mixture was centrifuged at 400×g for 5 minutes to collect the cells.
The cells were then recovered, filtered through a cell strainer and centrifuged at 400×g for 5 minutes to collect primary cardiomyocytes derived from rat neonates.
Next, the primary cardiomyocytes derived from rat neonates (corresponding 10 neonates) were suspended in 2 ml of a hypotonic solution [solution obtained by dissolving NH4Cl (8.29 g), KHCO3 (1.0 g) and EDTA/2Na (ethylenediaminetetraacetic acid disodium; manufactured by Dojin Chemical Laboratory) (37 mg) in water (1 L)]. The suspension was allowed to stand for 3 minutes to disrupt erythrocytes. To the suspension 10 ml of Medium 199 containing 10% fetal cow serum was added, and the mixture was centrifuged at 400×g for 5 minutes to collect the primary cardiomyocytes derived from rat neonates. […] An aliquot of the cardiomyocytes suspension obtained was taken out and 0.3% trypan blue was added thereto. The mixture was gently stirred and the count of cardiomyocytes was counted with a hemocytometer.
Incubation was continued for further 4 days to induce cell death. […]
The mean value (±SD) in the minimum effective concentration of Compound 1 required for inhibiting the cell death was 0.015±0.011 μM. The concentration of Compound 1 required for increasing the mean cell count by 30% when compared to the cell count without the addition of Compound 1 was determined to be the minimum effective concentration. […]

[2] = tested on: Human normal articular chondrocytes; assay: Inhibitory activity against cell death of human articular chondrocytes induced by NO (MTT); format: cell-based; settings: 100 μM; 1.5 mM sodium nitroprusside 5 hours; mean ±SD
Procedure: Human normal articular chondrocytes (Clonetics, Inc.) were proliferated in a growth medium for articular chondrocytes (CGM, Clonetics, Inc.) in monolayer culture. Then, the cells were suspended in 1.2% alginate-containing 155 mM NaCl solution in a density of 2.0×10^6 cells/ml, and beads having a 2 mm diameter were prepared using a syringe with a 22 gauge needle. The beads were incubated in a differentiation medium for articular chondrocytes (CDM, Clonetics, Inc.) charged in a 96-well round-bottomed plate (1 bead/well, manufactured by FALCON) for further 7 days. The medium was replaced by α-modified minimum essential medium containing Compound 1 (0.1 μM or 1 μM) and 10% fetal cow serum, followed by incubation for 48 hours and then for 5 hours in the co-presence of 1.5 mM sodium nitroprusside (NO generator, manufactured by Sigma). As control drugs, caspase 3 inhibitor (Z-DEVD-FMK (SEQ ID NO: 5), 100 μM, manufactured by R & D Systems, Inc.) and caspase 9 inhibitor (Z-LEHD-FMK (SEQ ID NO: 6), 100 μM, manufactured by R & D Systems, Inc.) were similarly monitored for their activities. After completion of the experiment, alginate was removed and the cell survival rate was determined by the MTT technique.
In the table, the numerical values indicate mean values (±SD) of the cell death inhibition rates as converted from the measurement data by the MTT technique. The cell survival rate after the addition of 1.5 mM sodium nitroprusside (without addition of either Compound 1 or control drug) was 31.9%.

[3] = molecular target: T1, rat MIF (Rattus norvegicus, UniProt P30904); assay: Binding to immobilized rat MIF by surface plasmon resonance (BIACORE 3000); settings: 10 μM in PBS, rat MIF immobilized on sensor chip CM5
T1 construct: the region encoding MIF was amplified from the complementary DNA (cDNA) library of rat and mouse brains; made in house; host or cells: Escherichia coli BL21 (DE3)
Procedure: The binding of rat MIF obtained in REFERENCE EXAMPLE 6 to Compound 1 obtained in REFERENCE EXAMPLE 1 was analyzed using BIACORE 3000 (manufactured by Biacore).
Rat MIF was immobilized on a sensor chip CM5 (manufactured by Biacore). Then, phosphate buffered saline (PBS) containing 10 μM of Compound 1 was flown over the sensor chip and changes in the surface plasmon resonance signal were monitored as the binding of the compound to rat MIF.
Rat MIF obtained in REFERENCE EXAMPLE 6 was immobilized on a sensor chip CM5 (manufactured by Biacore Co., Ltd.). Thereafter, phosphate buffered saline (PBS) containing 10 μM of 3-[2-(4-oxo-4H-1,3-benzothiazin-2-yl)-4-pyridyl]propionic acid (the compound of EXAMPLE 308 described in WO 03/020719) was flown over the sensor chip and changes in surface plasmon resonance signal were monitored as the binding of the compound to rat MIF.

C=CC1=C(C)c2cc3[n-]c(cc4[n-]c(cc5nc(cc1n2)C(C)=C5C=C)c(C)c4CCC(=O)O)c(CCC(=O)O)c3C.O.[Fe+2] [hematin, reference compound]
myocardial cell death inhibitory activity [1]: exhibit the activity of inhibiting myocardial cell death

Z-DEVD-FMK [reference compound]
Cell Death Inhibition Rate [2]: 49.7 ± 10.3

hemin [reference compound]
myocardial cell death inhibitory activity [1]: exhibit the activity of inhibiting myocardial cell death

Z-LEHD-FMK (Z N-cap, FMK C-terminus) [reference compound]
Cell Death Inhibition Rate [2]: 62.7 ± 10.6

O=C(O)CCc1ccnc(-c2nc(=O)c3ccccc3s2)c1 [3-[2-(4-oxo-4H-1,3-benzothiazin-2-yl)-4-pyridyl]propionic acid]
binding of the compound to rat MIF (changes in surface plasmon resonance signal) [3]: could be selected as the substance binding to MIF
